Columns and labels:
[1] = test system: B16F10 tumor cell; assay: B16F10 tumor cell proliferation in vitro; assay type: cell-based, murine
[2] = test system: B16F10 melanoma; assay: Primary tumor growth assay, B16F10 melanoma; assay type: in vivo, C57BL/6 mice; details: for inhibition of B16F10 tumor growth: twelfth day of treatment
Experimental: The proteins for injection were mixed with Polymyxin B-Agarose (Sigma) for 30 minutes at room temperature to remove endotoxin. The endotoxin levels were less than 0.05 EU/mg as determined using the QCL-1000 assay kit (Biowhittaker, Walkersville, Md.). Proteins were filter-sterilized and the protein concentration was determined prior to injection.
(§1) Five to eight week old C57BL/6 mice (Taconic, Germantown, N.Y.) were acclimated, caged in groups of four or less and their backs were shaved. Cultured B16F10 melanoma or Lewis lung carcinoma cells (1×10^6) were inoculated subcutaneously on the back of each mouse. Tumors were measured with a dial-caliper and the volumes were determined using the formula width^2×length×0.52. The treatment began 4 days after inoculation of the tumor cells. […] The experiments were terminated and mice sacrificed when the control mice began to die, usually at day 16 post-tumor cell injection.
Each treatment group contained six five- to eight-week old C57BL/6 mice. Treatment was initiated four days after subcutaneous injection of 1×10^6 B16F10 melanoma cells. The mice received one IP injection each day of saline, TSR2, TSR2+RFK or TSR2+QFK (SEQ ID NO: 23). A soluble form of the TGFβ receptor (100 μg/mouse/injection) (Smith, J. D. et al., Circulation Research 84:1212–1222, 1999) was included in the saline or TSR2+RFK injections on treatment day 1 and 7 for two additional experimental groups. The recombinant TSR-containing proteins were used at 1.0 mg/kg/day.
Each treatment group contained six five- to eight-week old C57BL/6 mice. Treatment was initiated four days after subcutaneous injections of 1×10^6 B16F10 melanoma cells. The mice received one IP injection each day, of saline, all three type 1 repeats of human TSP-1 [3TSR (TSP1) in FIG. 9] or all three type 1 repeats of mouse TSP-2 [3TSR (TSP2) in FIG. 9]. Recombinant proteins were used at a dose of 2.5 mg/kg/day.

[3] = test system: Human dermal microvessel endothelial cells (HDMEC); assay: In vitro endothelial cell migration assay (FGF-2 induced, transwell); assay type: cell-based; details: for concentration maximally effective in inhibiting endothelial cell migration: HDMEC migration in response to FGF-2
Experimental: Human dermal microvessel endothelial cells (HDMEC) were isolated by the procedure of Richard et al., Exp. Cell Res. 240:1–6 (1998). The cells were cultured in Vitrogen precoated dishes, and maintained in EBM (Clonetics Corp, San Diego, Calif.) containing 20% fetal bovine serum (FBS), 1 mg/ml hydrocortisone acetate, 5×10^−5 M dibutyryl-cAMP, 200 U/ml penicillin, 100 U/ml streptomycin, 250 mg/ml amphotericin and 2–5 ng/ml VEGF. Murine melanoma B16F10 and murine Lewis lung carcinoma cells were obtained from the ATCC, and were maintained in Dulbecco's Modified Eagle Media (DMEM) supplemented with 10% FBS, […] penicillin, 50 U/ml streptomycin, and 2 mM glutamine (supplemented DMEM). Mink lung epithelial cells (MLECs-Clone 32) that have been stably transfected with an 800 bp fragment of the plasminogen activator inhibitor-1 (PAI-1) promoter fused to the firefly luciferase reporter gene were kindly provided by Dr. Daniel Rifkin (Abe, M. et al., Anal. Biochem. 216:276–284, 1994). The transfected MLECs were maintained in supplemented DMEM.
Cells at passage 7–10 were serum-starved and maintained in EBM with 0.1% BSA (control media) for 20 hours before trypsinization to harvest the cells. Cells were washed in EBM twice and resuspended in control media at a concentration of 1×10^6 cells/ml. […] of cells were packed down and kept frozen. They were lysed and serially diluted by CyQuant reagent (Molecular Probe, Eugene, Oreg.) to be used for standard curve construction.
Transwell membrane (24-well polycarbonate membrane, […] from Corning Costar Corporation, Cambridge, Mass.) coated with Vitrogen (30 mg/ml, Invitrogen) on both sides was used for chemotactic migration experiments. Coated transwells were inverted, […] of cell suspension applied to the top of the membrane and covered by the bottom plate carefully so that the cell suspension stayed on top of the membrane. The cells were allowed to adhere to the coated membrane for two hours in an incubator at 37° C. with 5% CO2. After the adhesion incubation, the plates were re-inverted, the bottom wells were filled with 0.4 ml control media and the top wells were filled with 0.1 ml control media containing testing reagents. The plate was returned to the incubator for 3.5 hours for the cells to migrate. At the end of the incubation, the transwells were washed in PBS and the cells on the […] of the membrane (unmigrated cells) were wiped away with a cotton swab. The membranes were cut out by scalpel and placed into 96-well plates and frozen at −80° C. overnight. […] Fluorescence reading was done 16 hours later with a SpectraFluor plate reader with excitation at 485 nm and emission at […]. The number of cells migrated was then calculated based on the standard curve.

[4] = test system: Lewis lung carcinoma; assay: Primary tumor growth assay, Lewis lung carcinoma; assay type: in vivo, C57BL/6 mice; details: 2.5 mg/kg/day IP daily, treatment day 12
Experimental: as §1, with “The proteins for injection were mixed with Polymyxin B-Agarose (Sigma) for 30 minutes at room temperature to remove endotoxin. The endotoxin levels were less than 0.05 EU/mg as determined using the QCL-1000 assay kit (Biowhittaker, Walkersville, Md.). Proteins were filter-sterilized and the protein concentration was determined prior to injection. Five” for “Five”

[5] = test system: B16F10 tumors; assay: Histological examination of B16F10 tumors (anti-CD31, TUNEL, PCNA); assay type: in vivo, C57BL/6 mice; details: 1.0 mg/kg/day, twelfth treatment day; for decrease in number of proliferating tumor cells: PCNA positive cells; for increase in tumor cell apoptosis: TUNEL; for reduction in capillary density: anti-CD31
Experimental: The tumor tissues were cut, fixed with neutral buffered formaldehyde, and embedded in paraffin according to standard histological procedures. Hematoxylin and eosin staining was employed for tissue morphology examination. Blood vessels were immunochemically stained by anti-CD31 antibody with a Vectastain ABC kit (Vector Laboratories, Burlingame, Calif.). Tumor cell apoptosis was detected by TUNEL assay (Abe, M. et al., Anal. Biochem, 216:276–84, 1994). The number of blood vessels was recorded by counting ten high-power fields. Tumor cell proliferation and the apoptotic index were estimated by the percentage of cells scored under a light microscope. A minimum of 1,000 cells was counted in each tumor sample. To better understand the effect of the recombinant protein treatment on tumor growth, we have determined the rate of proliferation, the apoptotic index and the capillary density for tumors in the saline control group, mice treated with the TSR2+RFK protein or mice treated with the TSR2 protein at an intermediate dose (1.0 mg/kg/day) where the largest effect of inclusion of the RFK sequence is observed. Tumors were removed and fixed on the twelfth treatment day. Capillaries were visualized with anti-CD31 antibody and apoptotic cells were identified by TUNEL. […] The number of proliferating cells was decreased by 35% by treatment with the TSR2+RFK protein (p<0.005), while treatment with the TSR2 protein reduced tumor cell proliferation by 7.8% (p<0.05) (FIG. 6C).

[6] = test system: TGFβ; assay: Assay for TGFβ activation (MLEC luciferase assay on B16F10 conditioned media); assay type: cell-based, murine; details: for level of the active form of TGFβ as % of the total TGFβ: 5 μg/ml protein added, media conditioned by B16F10 melanoma cells, control 6.3%; for activation of TGFβ (in words): culture supernatant from B16F10 cells
Experimental: Human dermal microvessel endothelial cells (HDMEC) were isolated by the procedure of Richard et al., Exp. Cell Res. 240:1-6 (1998). The cells were cultured in Vitrogen precoated dishes, and maintained in EBM (Clonetics Corp, San Diego, Calif.) containing 20% fetal bovine serum (FBS), 1 mg/ml hydrocortisone acetate, 5×10^-5 M dibutyryl-cAMP, 200 U/ml penicillin, 100 U/ml streptomycin, 250 mg/ml amphotericin and 2-5 ng/ml VEGF. Murine melanoma B16F10 and murine Lewis lung carcinoma cells were obtained from the ATCC, and were maintained in Dulbecco's Modified Eagle Media (DMEM) supplemented with 10% FBS, […] penicillin, 50 U/ml streptomycin, and 2 mM glutamine (supplemented DMEM). Mink lung epithelial cells (MLECs-Clone 32) that have been stably transfected with an 800 bp fragment of the plasminogen activator inhibitor-1 (PAI-1) promoter fused to the firefly luciferase reporter gene were kindly provided by Dr. Daniel Rifkin (Abe, M. et al., Anal. Biochem. 216:276-284, 1994). The transfected MLECs were maintained in supplemented DMEM. B16F10 cells (2.5×10^5) were plated in a T25 flask and grown overnight in supplemented DMEM. The cells were rinsed once with 1.0 ml of serum-free DMEM and 2.5 ml of serum-free DMEM containing […] of the TSR, or […] recombinant protein were added. After an overnight incubation, conditioned media was collected and centrifuged at 12,000 rpm for 5 min to remove cellular debris. Undiluted media was used to determine the level of active TGFβ. The level of total TGFβ was determined by incubating the media at 80° C. for 10 min and diluting 1:5 in DMEM. One hundred microliters of conditioned media were added to wells of a 96-well plate containing 3×10^4 MLECs and the plates were incubated overnight. A standard curve was constructed by incubating 7.8 to 250 pg/ml of purified TGFβ with the […].) in DMEM. The media was removed and the cells were washed 3 times with cold PBS prior to the addition of […] of lysis buffer (PharMingen, San Diego, Calif.). Luciferase activity was measured using the Enhanced Luciferase Assay Kit PharMingen).

## TGFβ [reference compound]
[1]
  B16F10 tumor cell proliferation in vitro (in words): inhibit

## TSR2+QFK: recombinant version of the TSR2+RFK protein in which Q is substituted for R (arginine 413 to glutamine)
[2]; 1.0 mg/kg/day IP daily, FIG. 8
  B16F10 tumor growth inhibition (in words): less effective as an inhibitor of tumor growth than TSR2+RFK

## TSP-1: Human TSP-1 purified from the supernatant of thrombin-treated platelets
[2]; 0.25 mg/kg/day (0.6 nmoles/kg/day) injection
  reduction of tumor growth: 56%
[2]; 2.5 mg/kg/day IP daily
  B16F10 tumor growth inhibition (in words): no effect
[2]; systemic injection, 0.25 mg/ml as printed, twelfth treatment day
  inhibition of tumor growth: 56%
[3]; biphasic response, concentrations above this level are less effective
  concentration up to which inhibition of endothelial cell migration is dose-dependent: 100 ng/mL

## 3TSR: recombinant protein containing all three TSRs of human TSP-1, amino acids 361–530
[4]
  inhibition of Lewis lung carcinoma tumor growth: 73%
[2]; 0.25 mg/kg/day IP daily
  B16F10 tumor growth inhibition (in words): less effective
[2]; 2.5 mg/kg/day IP daily
  inhibition of B16F10 tumor growth (tumor volume): 81%
[2]; 10 mg/kg/day
  B16F10 tumor growth inhibition (in words): remains maximally active
[2]; dosages of 1.0 mg/kg/day and greater
  B16F10 tumor growth inhibition compared with TSP-1 (in words): more effective than TSP-1
[3]
  concentration maximally effective in inhibiting endothelial cell migration: 10 ng/mL

## TSR2: recombinant protein that contains the second TSR of human TSP-1, amino acids 416–473, excludes DKRFK
[2]; 0.25 mg/kg/day IP daily
  B16F10 tumor growth inhibition (in words): indistinguishable from the control group
[2]; 1.0 mg/kg/day IP daily
  inhibition of B16F10 tumor growth: 38%
[2]; 2.5 mg/kg/day IP daily
  inhibition of B16F10 tumor growth (tumor volume): 68%
[5]
  decrease in number of proliferating tumor cells: 7.8%
  increase in tumor cell apoptosis: 1.9 fold
  reduction in capillary density: 64%
[6]
  level of the active form of TGFβ as % of the total TGFβ: 4.8%
  activation of TGFβ (in words): does not
[3]
  concentration maximally effective in inhibiting endothelial cell migration: 10 ng/mL

B1: TSR2+RFK: recombinant longer version of the second type 1 repeat of human TSP-1 including the RFK sequence, amino acids 411–473 (protein, listed as Homo sapiens)
chain: DKRFKQDGGWSHWSPWSSCSVTCGDGVITRIRLCNSPSPQMNGKPCEGEARETKACKKDACPI
[4]
  inhibition of Lewis lung carcinoma tumor growth: 77%
[2]; 1.0 mg/kg/day IP daily
  inhibition of B16F10 tumor growth: 80%
[2]; 2.5 mg/kg/day IP daily
  inhibition of B16F10 tumor growth (tumor volume): 86%
[5]
  decrease in number of proliferating tumor cells: 35%
  increase in tumor cell apoptosis: 4 fold
  reduction in capillary density: 71%
[6]
  level of the active form of TGFβ as % of the total TGFβ: 30%
  activation of TGFβ (in words): activates TGFβ
[1]
  B16F10 tumor cell proliferation in vitro (in words): inhibit
[3]
  concentration maximally effective in inhibiting endothelial cell migration: 10 ng/mL

B2: 3TSR (TSP2): recombinant protein with all three TSRs of mouse TSP-2, amino acids Asp 381 through Ile 550 (protein, listed as Mus musculus)
chain: DEGWSPWAEWTECSVTCGSGTQQRGRSCDVTSNTCLGPSIQTRTCSLGKCDTRIRQNGGWSHWSPWSSCSVTCGVGNVTRIRLCNSPVPQMGGKNCKGSGRETKPCQRDPCPIDGRWSPWSPWSACTVTCAGGIRERSRVCNSPEPQYGGKDCVGDVTEHQMCNKRSCPI
[2]; 2.5 mg/kg/day IP daily
  B16F10 tumor growth inhibition (in words): significantly less potent
